Values of other authors in publication PMC11172375, “Preclinical Evaluation of Biodistribution and Toxicity of [^211At]PSMA-5 in Mice and Primates for the Targeted Alpha Therapy against Prostate Cancer” (International Journal of Molecular Sciences, 2024).

Legend:
prostate cancer = system: prostate cancer; design: method as in PMID 27390158, PMID 38218192, PMID 33293081, PMID 33008928, PMID 37247612; details: patients resistant to beta therapy with [177Lu]PSMA-617; cited from earlier work
[1] = system: metastatic castration-resistant prostate cancer; design: method as in PMID 34161051; details: patients with mCRPC previously treated with ARPI and taxane, VISION trial; cited from earlier work
[2] = system: metastatic castration-resistant prostate cancer; design: method as in doi:10.1200/JCO.2022.40.6_suppl.TPS211; details: taxane-naïve patients with mCRPC, PSMAfore trial; cited from earlier work
[3] = cited from earlier work
[4] = design: method as in PMID 27230930; details: mice treated with 1.5MBq (75MBq/kg); cited from earlier work

O=C([O-])CC[C@H](NC(=O)N[C@@H](CCCCNC(=O)[C@H](Cc1ccc2ccccc2c1)NC(=O)C1CCC(CNC(=O)CN2CCN(CC(=O)[O-])CCN(CC(=O)[O-])CCN(CC(=O)[O-])CC2)CC1)C(=O)[O-])C(=O)[O-].[225Ac].[H+].[H+].[H+] (stereo partly drawn) [[^225Ac]PSMA-617]
efficacy of alpha therapy (prostate cancer): proven effective

O=C([O-])CN1CCN(CC(=O)[O-])CCN(CC(=O)NCC2CCC(C(=O)N[C@@H](Cc3ccc4ccccc4c3)C(=O)NCCCC[C@H](NC(=O)N[C@@H](CCC(=O)O)C(=O)O)C(=O)O)CC2)CCN(CC(=O)[O-])CC1.[177Lu+3] (stereo partly drawn) [[^177Lu]PSMA-617]
overall survival compared to the standard of care [1]: significantly extended overall survival
radiographic progression-free survival compared to ARPI changes [2]: prolong radiographic progression-free survival

[211At-].[Na+] [[^211At]NaAt]
uptake in the thyroid ([3]; 3 h post-administration): 509 %ID/g
thyroid histology ([3]; even in low-dose groups (5 MBq/kg)): thyroid ablation effects

O=C(O)CC[C@H](NC(=O)NC(CCCCNC(=O)c1ccc([211At])cc1)C(=O)O)C(=O)O (stereo partly drawn) [^211At-6, (2S)-2-(3-(1-Carboxy-5-(4-211At-Astatobenzamido)Pentyl)Ureido)-Pentanedioic Acid]
kidney toxicity [4]: late nephropathy with loss of the proximal tubules
